Measured values reported in PMC6934184, “Selective DNA-PKcs inhibition extends the therapeutic index of localized radiotherapy and chemotherapy” (The Journal of Clinical Investigation, 2019).

Target: T1, PHKG2 (Homo sapiens, UniProt P15735)
T1 construct: purchased Thermo Fisher Scientific (Life Technologies) SelectScreen
Experiment: SelectScreen Z'LYTE
Format: biochemical
Procedure, shortened: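 SelectScreen broad panel; activity (Z'LYTE, Adapta) plus binding formats. ATP: Km app for CSF1R Z'LYTE; 10 for CAMK1 Adapta. Readout = % per kinase.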

T1 sequence (P15735 whole entry): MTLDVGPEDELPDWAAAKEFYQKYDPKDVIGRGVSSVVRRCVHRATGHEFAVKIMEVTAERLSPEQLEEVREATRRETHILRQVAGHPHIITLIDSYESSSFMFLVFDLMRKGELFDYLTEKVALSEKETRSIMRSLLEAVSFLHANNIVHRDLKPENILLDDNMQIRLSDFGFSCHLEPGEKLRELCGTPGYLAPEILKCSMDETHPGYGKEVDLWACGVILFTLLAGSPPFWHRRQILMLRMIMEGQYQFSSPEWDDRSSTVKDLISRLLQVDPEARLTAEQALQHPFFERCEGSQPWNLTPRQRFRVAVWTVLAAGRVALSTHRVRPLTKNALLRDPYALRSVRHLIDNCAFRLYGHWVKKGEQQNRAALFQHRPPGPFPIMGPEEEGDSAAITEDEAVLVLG

`CN(C(=O)CN1CCOCC1)c1ccc2sc3c(-c4cccc5c(=O)cc(N6CC7CCC(C6)O7)oc45)cccc3c2c1` [NU5455] was tested, and the inhibition at 1 µM was -3.6%.
